The source of these data is patent US20020143062A1, “Method to incorporate N-(4-hydroxyphenyl) retinamide in liposomes” (Board of Regents, The University of Texas System, priority 2000, published 2002).

Structures can show the parent of a compound that is named as a salt. Where two headings read alike, the source gives them in different places. Starred links: 1 amine or outer side, 2 acyl side, 3 side chain; linkers in the order of their positions; H or OH if unused. Positions of bridges follow the written chain, without caps; N, C: chain ends. Non-standard residues stand in square brackets, D forms with d. Residues, ends and D or L forms follow the SMILES beside them. Chains are numbered I, II in the order given. Actinocin(9to1) = Cc1c2oc3c(C)ccc(C(=O)[*:1])c3nc-2c(C(=O)[*:2])c(N)c1=O; NMeV = CN[C@H](C(=O)O)C(C)C; Sar = CNCC(=O)O

The test system of series [1] is ER-negative MDA-MB-231 cells. Briefly: NO production, nitrite (Table 8). Format: cell-based. The following applies: cyclosporin A 4 μg/ml; CD437 2 μM; ATRA 1 μM; alone or combined as labelled; 3 days. An excerpt: (§1) Liposomal 4-HPR in combination with cyclosporin A, increased iNOS production of NO in breast cancer cells (Table 3-5). […] Furthermore, an increase in the production of NO in these cells was not indicated with other retinoids such as CD437 and ATRA.

Series [2] deals with ER-positive MCF-7 cells. In words: NO production, nitrite assay (Tables 5 and 7). It counts as cell-based. The following applies: for increase of iNOS production of NO in the presence of cyclosporin A: both ER positive and ER negative breast cancer cells (Tables 7, 8).
From the text: (§2) Nitric oxide (NO), an important biological second messenger, is known to induce growth inhibition and apoptosis in cells. Nitric oxide (NO) is biosynthesized by isoenzymes called nitric oxide synthases. One such isoenzyme, inducible NOS (iNOS), is present only after cytokine induction, such as interferon-γ (IFN-γ). […] Here, the ability of liposomal 4-HPR and IFN-γ to induce NO production and growth inhibition in breast cancer positive (Table 5) and breast cancer negative (Table 6) cells is examined by nitrite assays and growth inhibition assays, as known to the skilled artisan.
(§3) It is also known to those skilled in the art that nitric oxide (NO) is a biologic mediator derived from the amino acid L-arginine. A family of enzymes, known as nitric oxide synthase (NOS), act upon L-arginine to oxidize one of the guanidino nitrogens to nitric oxide while citrulline is formed from the remainder of the L-arginine molecule.
as §1

Series [3] concerns MCF-7/WT. Briefly: Cellular proliferation assay, IC50 of retinoids with/without cyclosporin A. It counts as cell-based.
The conditions of series [4]: cited from earlier work.
For series [5] the following is noted: cited from earlier work. The source holds these as a separate data set.
The subject of series [6] is MCF-7/ADR. Briefly: Cellular proliferation assay, IC50 of retinoids with/without cyclosporin A. It counts as cell-based.
For series [7] the following is noted: cited from earlier work. The source holds these as a separate data set.
In series [8] the test system is ER-positive MCF-7 cells. Briefly: Growth inhibition, cell count (Table 6). Format: cell-based. The following applies: alone or with 4HPR 1 μM as labelled, 5 days. An excerpt:
Nitric oxide (NO), an important biological second messenger, is known to induce growth inhibition and apoptosis in cells. Nitric oxide (NO) is biosynthesized by isoenzymes called nitric oxide synthases. […]

For series [9], the system named is ER-positive MCF-7 cells. Briefly: Growth inhibition, cell count (Table 5). Format: cell-based. The conditions noted are these: alone or with 4HPR 1 μM as labelled, 5 days.
From the text: as §2

Series [10] concerns ER-positive MCF-7 cells. Briefly: NO production, nitrite assay (Table 6). Format: cell-based. The following applies: alone or with 4HPR 1 μM as labelled, 5 days.
From the text: as §2, §3

Setting [11] is: cyclosporin A 4 μg/ml, CD437 2 μM, ATRA 1 μM, alone or combined as labelled, 3 days.
[12] abbreviates: without cyclosporin A, read-out: IC50 Without CsA.
Setting [13] is: single oral doses of about 0.6 mg/kg to about […].

Regarding `CC1=C(/C=C/C(C)=C/C=C/C(C)=C/C(=O)O)C(C)(C)CCC1` [ATRA, all-trans-retinoic acid], the “Nitrite (NO production)” value in [1] is recorded as 7.1 μM Nitrite /1 × 10^6 cells; in [2] (setting [11]), 15.1 μM Nitrite /1 × 10^6 cells. The “increase of iNOS production of NO in the presence of cyclosporin A” value in series [2] is given as “not indicated”. In addition, the IC50 in series [3] (Homo sapiens, MCF7, cotreatment with CsA, concentration not marked, read-out: IC50 With CsA) came to 287 nM; in series [3] (Homo sapiens, MCF7, without cyclosporin A, read-out: IC50 Without CsA) it was 288 nM.

With `Cc1c2oc3c(C)ccc(C(=O)N[C@@H]4C(=O)N[C@H](C(C)C)C(=O)N5CCC[C@H]5C(=O)N(C)CC(=O)N(C)[C@@H](C(C)C)C(=O)O[C@@H]4C)c3nc-2c(C(=O)N[C@@H]2C(=O)N[C@H](C(C)C)C(=O)N3CCC[C@H]3C(=O)N(C)CC(=O)N(C)[C@@H](C(C)C)C(=O)O[C@@H]2C)c(N)c1=O` [Actinomycin D] (I: T[dV]P[Sar][NMeV] / II: T[dV]P[Sar][NMeV]; ester I:1-I:C, II:1-II:C; linker I:N-II:N via Actinocin(9to1)), in [4] (in vivo), the “dose excreted intact into the bile” value is recorded as “Half of the dose”, the “dose excreted intact into the urine” value was 10%, the half-life entry is given as “about 36 hours” and the “passage of the blood-brain barrier” value is recorded as “does not pass the blood-brain barrier”.

Regarding `CS(=O)(=O)OCCCCOS(C)(=O)=O` [Busulfan, 1,4-butanediol dimethanesulfonate], the “adults obtaining hematologic remission with regression or stabilization of organomegaly” value in [5] (previously untreated chronic myelogenous leukemia) is reported as “Approximately 90%”.

For the compound `O=C(O)c1ccc2cc(-c3ccc(O)c(C45CC6CC(CC(C6)C4)C5)c3)ccc2c1` [CD437], the “Nitrite (NO production)” value was 59.3 μM Nitrite /1 × 10^6 cells in series [1] and 71.8 μM Nitrite /1 × 10^6 cells in series [2] (setting [11]). Further, the “increase of iNOS production of NO in the presence of cyclosporin A” value in [2] is “not indicated”. Also, the IC50 was 358 nM in series [3] (cotreatment with CsA, concentration not marked, read-out: IC50 With CsA); 287 nM in series [3] (setting [12]); 197000 nM in [6] (cotreatment with CsA 2 μg/ml, read-out: IC50 With CsA); 1190 nM in [6] (cotreatment with CsA 4 μg/ml, read-out: IC50 With CsA); 1580 nM in series [6] (setting [12]).

As to `O=C(O)CCCc1ccc(N(CCCl)CCCl)cc1` [Chlorambucil, 4-[bis(2-chlorethyl)amino] benzenebutanoic acid], the “oral / gastrointestinal absorption” value in series [4] (in vivo) is “rapidly and completely absorbed”. Besides, in series [4] (setting [13]), the “terminal half-life of the parent drug” value is reported as “about 1.5 hours” and the “time to peak plasma chlorambucil levels” value is “within one hour”.

Regarding `N.N.[Cl][Pt][Cl]` [Cisplatin], in series [4] (in vivo), the “oral / gastrointestinal absorption” value was “not absorbed orally”.

`COc1cccc2c1C(=O)c1c(O)c3c(c(O)c1C2=O)C[C@@](O)(C(C)=O)C[C@@H]3O[C@H]1C[C@H](N)[C@H](O)[C@H](C)O1` [Daunorubicin, 5,12-Naphthacenedione, (8S-cis)-8-acetyl-10-[(3-amino-2,3,6-trideoxy-a-L-lyxo-hexanopyranosyl)oxy]-7,8,9,10-tetrahydro-6,8,11-trihydroxy-10-methoxy-, hydrochloride]: in series [4] (in vivo), the “oral / gastrointestinal absorption” value is given as “Oral absorption is poor”, the elimination half-life result is “about 19 hours” and the “secreted into the bile” value is “about 40%”.

Take `COc1cccc2c1C(=O)c1c(O)c3c(c(O)c1C2=O)C[C@@](O)(C(=O)CO)C[C@@H]3O[C@H]1C[C@H](N)[C@H](O)[C@H](C)O1` [Doxorubicin, 5,12-Naphthacenedione, (8s-cis)-10-[(3-amino-2,3,6-trideoxy-a-L-lyxo-hexopyranosyl)oxy]-7,8,9,1 0-tetrahydro-6,8,11-trihydroxy-8-(hydroxyacetyl)-1-methoxy-hydrochloride]: in [4] (in vivo), the “oral / gastrointestinal absorption” value is reported as “absorbed poorly” and the elimination half-life entry was “about 30 hours”.

On to `O=NN(CCCl)C(=O)NC1CCCCC1` [Lomustine, 1-(2-chloro-ethyl)-3-cyclohexyl-l nitrosourea], for which the “radioactivity excreted in the form of degradation products within 24 hours” value in series [4] (oral radioactive lomustine, about 30 mg/m^2 to 100 mg/m^2) was “about half”. For the same compound, in series [4] (oral radioactive lomustine), the “serum half-life of the metabolites” value is “about 16 hours to about 2 days”.

As to `N[C@@H](Cc1ccc(N(CCCl)CCCl)cc1)C(=O)O` [Melphalan, 4-[bis(2-chloroethyl)amino]-L-phenylalanine], the “proportion of patients with a favorable response” value in series [5] (multiple myeloma, oral administration) was “about one third to one half”.

In the case of `CO[C@@]12[C@H](COC(N)=O)C3=C(C(=O)C(C)=C(N)C3=O)N1C[C@@H]1N[C@@H]12` [Mitomycin], the “time required to reduce the serum concentration by about 50%” value in series [7] (30 mg bolus injection) was 17 min. The “dose excreted unchanged in the urine” value in [7] (in vivo) is reported as “Approximately 10%”.

On to `COc1cccc2c1C(=O)c1c(O)c3c(c(O)c1C2=O)C[C@@](O)([C@H](C)O)C[C@@H]3O[C@H]1C[C@H](N)[C@H](O)[C@H](C)O1` [daunorubicinol], for which the “half-life of active metabolite” value in series [4] (in vivo) was “about 27 hours”.

Regarding `CC[C@]1(O)C[C@@H]2CN(CCc3c([nH]c4ccccc34)[C@@](C(=O)OC)(c3cc4c(cc3OC)N(C)[C@H]3[C@@](O)(C(=O)OC)[C@H](OC(C)=O)[C@]5(CC)C=CCN6CC[C@]43[C@@H]65)C2)C1` [vinblastine], the “administered dose recovered in the feces after biliary excretion” value in series [4] (in vivo) is recorded as “about 10%”. In addition, in series [4] (intravenous injection), the “half-life of disappearance from plasma after distribution (first)” value is given as “approximately 1 hours” and the “half-life of disappearance from plasma after distribution (second)” value is approximately 72000 s.

Take `CC[C@]1(O)C[C@H]2CN(CCc3c([nH]c4ccccc34)[C@@](C(=O)OC)(c3cc4c(cc3OC)N(C=O)[C@H]3[C@@](O)(C(=O)OC)[C@H](OC(C)=O)[C@]5(CC)C=CCN6CC[C@]43[C@@H]65)C2)C1` [vincristine]: the “terminal half-life (clearance from plasma)” value in series [4] (in vivo) was “about 24 hours”.

In the case of “IFN-γ: Interferon gamma, cytokine that induces iNOS”, the Cell count is 51 × 10^4 in series [8] (IFN-γ 25 U/ml), 52 × 10^4 in [8] (IFN-γ 50 U/ml), 254 × 10^4 in series [9] (IFN-γ 25 U/ml) and 258 × 10^4 in series [9] (IFN-γ 50 U/ml). Also, the “Nitrite (NO production)” value in series [2] (IFN-γ 25 U/ml, alone or with 4HPR 1 μM as labelled, 5 days) was 7.1 ± 3.3 μM Nitrite /1 × 10^6 cells; in [2] (IFN-γ 50 U/ml, alone or with 4HPR 1 μM as labelled, 5 days) it was 6.6 ± 0.5 μM Nitrite /1 × 10^6 cells; in [10] (IFN-γ 25 U/ml), 28.3 ± 4.1 μM Nitrite /1 × 10^6 cells; in series [10] (IFN-γ 50 U/ml) it was 24.4 ± 0.4 μM Nitrite /1 × 10^6 cells.

By IC50 is commonly meant the concentration needed to halve the response being measured.
